Results reported in patent US20210382054A1, “METHODS FOR SCREENING UBIQUITIN LIGASE AGONISTS” (University of Washington, priority 2018, published 2021).

These substances were tested against T1, KEAP1-ssDNA12 and KRAS^G12D-ssDNA18 (Homo sapiens, UniProt P01116+Q14145, G12D) (assay: APTLAB (adjustable platform for tracking low affinity binding) detected by Octet BLI). Conditions: ssDNA bridge oligonucleotide alone, no compound (FIG. 8B).
T1 construct: full length human KRAS4B (UniProtKB-P01116-2) with a site mutation G12D; His-tag (N, cleaved yes); His-tag (N); made in house; host or cells: E. coli BL21 (DE3)
Text: While TR-FRET can be used as an informative second screen for hit validation, its principle is similar to AlphaScreen and relies on beads-based and proximity-induced signals. The hit compounds were further validated with additional methods that are distinct from AlphaScreen and TR-FRET methods. […] In other words, even though these compounds might be able to promote KRAS-KEAP1 interaction, the resulting ternary complex might be too unstable to be detected by the conventional methods. To overcome this problem, a new assay was designed (designated herein as APTLAB, adjustable platform for tracking low affinity binding) (FIG. 5), in which weak interactions between complementary DNA strands with variable length was used to enhance the compound-induced low affinity binding between KRAS and KEAP1 and render it detectable by conventional methods.
To couple adjustable DNA oligonucleotide interactions with low affinity protein-protein interaction, a protein fold, HUH, which is able to react with a specific single-stranded DNA (ssDNA) oligonucleotide and form a covalently linked protein-DNA conjugate (Lovendahl, K. N., Hayward, A. N. & Gordon, W. R. Sequence-Directed Covalent Protein-DNA Linkages in a Single Step Using HUH-Tags. J Am Chem Soc 139, 7030-7035, doi:10.1021/jacs.7b02572 (2017)), was utilized. HUH protein was fused to the C-terminus of KEAP1 and KRAS^G12D individually so that the two chimeric proteins can each form a covalent link with an ssDNA containing the HUH-reactive sequence (FIGS. 5 and 6). The purified HUH fusion proteins were adjusted to 100 μM in a buffer containing 20 mM HEPES (pH 7.5), 50 mM NaCl, 0.5 mM TCEP, 1 mM MgCl2 and 1 mM MnCl2. The ssDNA oligonulceotides were added to a final concentration of 120 μM. […]
ssDNA bridge oligonucleotides were synthesized with different lengths with 33, 28 and 23 nucleotides (nt) (FIG. 8A) and tested their ability to promote complex formation between the two ssDNA-protein conjugates as monitored by BLI. […]

Substance | complex formation between KEAP1-ssDNA12 and KRAS^G12D-ssDNA18, BLI binding signal
ssDNA-bridge23nt: ssDNA bridge oligonucleotide, 23 nucleotides, 5′-GTTGTTGTTTTGTATGGTGTGTG-3′ (chemistry not fully specified) | too weak to detect
ssDNA-bridge28nt: ssDNA bridge oligonucleotide, 28 nucleotides, 5′-GTTGTTGTTGTTTTGTATGGTGTGTGGT-3′; inflection point bridge (chemistry not fully specified) | significantly lower
ssDNA-bridge33nt: ssDNA bridge oligonucleotide, 33 nucleotides, 5′-GTTGTTGTTGTTGTTTTGTATGGTGTGTGGTGG-3′ (chemistry not fully specified) | high BLI signal
